Like-named read-outs stand apart in the source and are kept apart here.
Assays:
MiaPaCa2 cells = assay: cell-based HT lactate assay, colorimetric/fluorometric detection (inhibition of lactate production); conditions: class symbols, 0 to 3 pluses
Method: Cell-based HT Lactate assay is a miniaturized Biovision Lactate Colorimetric/Fluorometric Assay Kit (Cat #K607-100). The assay is roughly a 3.5 hour assay run in a 1536 plate format. Cell number optimization should be run for each cell line to achieve an optimal number in which lactate production equals roughly 90% of the standard curve range. Cell number per well optimization has been performed with the following cell lines: MiaPaCa2—500 cells/well, SNU398—500 cells/well, and P493—500 cells/well.
The lactate activity in Table 8 is represented by 0 to 3 pluses as follows: +++<1 μM; ++1-10 μM; +10-57 μM; and −>57 μM.

Human LDHA = Human LDHA (Homo sapiens (Human), UniProt P00338); assay: human LDHA primary biochemical assay (resazurin/diaphorase coupled, fluorescence)
Text: Test compounds were placed in a Greiner Bio-One (Monroe, N.C.) 1536-well black solid bottom assay plate. 200 millimolar (mM) Tris HCl, pH 7.4, 100 micromolar […] EDTA and 0.01% TWEEN-20™, final concentration, was used as the assay buffer. The LDHA reagent was 2 nanomolar (nM) Human LDHA (Meridian Life Science, Inc., Memphis, Tenn.), final concentration, in assay buffer.

[1] = LDHA inhibitory activity, assay of Example 1, activity level classes
[2] = LDHA inhibitory activity, activity level based on IC50 (Table 7)

SMILES	IC50 (MiaPaCa2 cells; Homo sapiens, MIA PaCa-2)	IC50 (Human LDHA; [2])	other results
NS(=O)(=O)c1ccc(Cc2c(-c3ccc(F)c(F)c3)nn(-c3nc(C(=O)O)cs3)c2I)cc1 [Compound 43, 2-(3-(3,4-difluorophenyl)-5-iodo-4-(4-sulfamoylbenzyl)-1H-pyrazol-1-yl)thiazole-4-carboxylic acid]	10000 to 57000 nM	–	IC50 (Human LDHA; [1]): < 100 nM
Cc1c(Cc2ccc(S(N)(=O)=O)cc2)c(-c2ccccc2)nn1-c1nc(C(=O)O)cs1 [Compound 47, 2-(5-methyl-3-phenyl-4-(4-sulfamoylbenzyl)-1H-pyrazol-1-yl)thiazole-4-carboxylic acid]	> 57000 nM	–	IC50 (Human LDHA; [1]): < 100 nM
NS(=O)(=O)c1ccc(Cc2c(-c3ccc(F)c(F)c3)nn(-c3nc(C(=O)O)cs3)c2O)cc1 [Compound 53, 2-(3-(3,4-difluorophenyl)-5-hydroxy-4-(4-sulfamoylbenzyl)-1H-pyrazol-1-yl)thiazole-4-carboxylic acid]	> 57000 nM	–	–
NS(=O)(=O)c1ccc(Cc2c(-c3cccc(-c4ccccc4)c3)nn(-c3nc(C(=O)O)cs3)c2O)cc1 [Compound 54, 2-(3-([1,1′-biphenyl]-3-yl)-5-hydroxy-4-(4-sulfamoylbenzyl)-1H-pyrazol-1-yl)thiazole-4-carboxylic acid]	> 57000 nM	–	–
NS(=O)(=O)c1ccc(Cc2c(-c3ccccc3)nn(-c3nc(C(=O)O)cs3)c2C#CC2CC2)cc1 [Compound 160, 2-(5-(cyclopropylethynyl)-3-phenyl-4-(4-sulfamoylbenzyl)-1H-pyrazol-1-yl)thiazole-4-carboxylic acid]	1000 to 10000 nM	–	IC50 (Human LDHA; [1]): < 100 nM
NS(=O)(=O)c1ccc(Cc2c(-c3cccc(-c4ccccc4)c3)nn(-c3nc(C(=O)O)cs3)c2C2CC2)c(F)c1 [Compound 183, 2-(3-([1,1′-biphenyl]-3-yl)-5-cyclopropyl-4-(2-fluoro-4-sulfamoylbenzyl)-1H-pyrazol-1-yl)thiazole-4-carboxylic acid]	< 1000 nM	–	IC50 (Human LDHA; [1]): < 100 nM
NS(=O)(=O)c1ccc(Cc2c(-c3cccc(-c4ccccc4)c3)nn(-c3nc(C(=O)O)cs3)c2CCC2CC2)cc1 [Compound 203, 2-(3-([1,1′-biphenyl]-3-yl)-5-(2-cyclopropylethyl)-4-(4-sulfamoylbenzyl)-1H-pyrazol-1-yl)thiazole-4-carboxylic acid]	< 1000 nM	–	IC50 (Human LDHA; [1]): < 100 nM
NS(=O)(=O)c1ccc(Cc2c(C3CC3(F)F)nn(-c3nc(C(=O)O)cs3)c2-c2cccc(-c3ccccc3)c2)cc1 (stereo not drawn) [Compound 206, 2-(5-([1,1′-biphenyl]-3-yl)-3-(2,2-difluorocyclopropyl)-4-(4-sulfamoylbenzyl)-1H-pyrazol-1-yl)thiazole-4-carboxylic acid]	1000 to 10000 nM	–	IC50 (Human LDHA; read-out: Inhibitory activity IC50): 1000 to 57000 nM
N[S+](=O)([O-])c1ccc(Cc2c(-c3cccc(-c4ccccc4)c3)nn(-c3nc(C(=O)O)cs3)c2CC2CC2)cc1 [Compound 276]	–	–	IC50 (MiaPaCa2 cells): < 1000 nM
NS(=O)(=O)c1ccc(Cc2c(-c3ccc(F)c(OC4CC4)c3)nn(-c3nc(C(=O)O)cs3)c2CC2CC2)cc1F [Compound 471, 2-(3-(3-cydopropoxy-4-fluorophenyl)-5-(cyclopropylmethyl)-4-(3-fluoro-4-sulfamoylbenzyl)-1H-pyrazol-1-yl)thiazole-4-carboxylic acid]	1000 to 10000 nM	–	–
Cc1ccc(-c2cc(-c3nn(-c4nc(C(=O)O)cs4)c(CC4CC4)c3Cc3ccc(S(N)(=O)=O)cc3F)ccc2F)cc1 [Compound 472, 2-(5-(cyclopropylmethyl)-3-(6-fluoro-4′-methyl-[1,1′-biphenyl]-3-yl)-4-(2-fluoro-4-sulfamoylbenzyl)-1H-pyrazol-1-yl)thiazole-4-carboxylic acid]	< 1000 nM	–	–
NS(=O)(=O)c1ccc(Cc2c(-c3cccc(OC4CCCC4)c3)nn(-c3nc(C(=O)O)cs3)c2CC2CC2)cc1 [Compound 477, 2-(3-(3-(cyclopentyloxy)phenyl)-5-(cyclopropylmethyl)-4-(4-sulfamoylbenzyl)-1H-pyrazol-1-yl)thiazole-4-carboxylic Acid]	< 1000 nM	–	–
NS(=O)(=O)c1ccc(Cc2c(-c3cccc(Nc4ccccc4)c3)nn(-c3nc(C(=O)O)cs3)c2CC2CC2)cc1 [Compound 485, 2-(5-(cyclopropylmethyl)-3-(3-(phenylamino)phenyl)-4-(4-sulfamoylbenzyl)-1H-pyrazol-1-yl)thiazole-4-carboxylic acid]	1000 to 10000 nM	–	–
CC(C)Oc1cccc(-c2nn(-c3nc(C(=O)O)cs3)c(CC3CC3)c2Cc2ccc(S(N)(=O)=O)cc2)c1 [Compound 504, 2-(5-(cyclopropylmethyl)-3-(3-isopropoxyphenyl)-4-(4-sulfamoylbenzyl)-1H-pyrazol-1-yl)thiazole-4-carboxylic Acid]	1000 to 10000 nM	–	–
C/C=C/c1cc(-c2nn(-c3nc(C(=O)O)cs3)c(CC3CC3)c2Cc2ccc(S(N)(=O)=O)c(F)c2)ccc1F [Compound 533, (E)-2-(5-(cyclopropylmethyl)-3-(4-fluoro-3-(prop-1-en-1-yl)phenyl)-4-(3-fluoro-4-sulfamoylbenzyl)-1H-pyrazol-1-yl)thiazole-4-carboxylic acid]	–	< 100 nM	–
C=C(C)c1cc(-c2nn(-c3nc(C(=O)O)cs3)c(CC3CC3)c2Cc2ccc(S(N)(=O)=O)c(F)c2)ccc1F [Compound 534, 2-(5-(cyclopropylmethyl)-3-(4-fluoro-3-(prop-1-en-2-yl)phenyl)-4-(3-fluoro-4-sulfamoylbenzyl)-1H-pyrazol-1-yl)thiazole-4-carboxylic acid]	–	< 100 nM	–
NS(=O)(=O)c1ccc(Cc2c(-c3ccc(F)c(/C=C/C4CCCC4)c3)nn(-c3nc(C(=O)O)cs3)c2CC2CC2)cc1F [Compound 535, (E)-2-(3-(3-(2-cyclopentylvinyl)-4-fluorophenyl)-5-(cyclopropylmethyl)-4-(3-fluoro-4-sulfamoylbenzyl)-1H-pyrazol-1-yl)thiazole-4-carboxylic acid]	–	< 100 nM	–
CCOC(=O)c1csc(-n2nc(-c3ccc(F)c(C#CC4CCCC4)c3)c(Cc3cccc(S(N)(=O)=O)c3)c2CC2CC2)n1 [Compound 536, ethyl 2-(3-(3-(cyclopentylethynyl)-4-fluorophenyl)-5-(cyclopropylmethyl)-4-(3-sulfamoylbenzyl)-1H-pyrazol-1-yl)thiazole-4-carboxylate]	–	> 57000 nM	–
CC(C)CC#Cc1cc(-c2nn(-c3nc(C(=O)O)cs3)c(CC3CC3)c2Cc2ccc(S(N)(=O)=O)c(F)c2)ccc1F [Compound 538, 2-(5-(cyclopropylmethyl)-3-(4-fluoro-3-(4-methylpent-1-yn-1-yl)phenyl)-4-(3-fluoro-4-sulfamoylbenzyl)-1H-pyrazol-1-yl)thiazole-4-carboxylic acid]	–	< 100 nM	–
CCCC#Cc1cc(-c2nn(-c3nc(C(=O)O)cs3)c(CC3CC3)c2Cc2ccc(S(N)(=O)=O)c(F)c2)ccc1F [Compound 539, 2-(5-(cyclopropylmethyl)-3-(4-fluoro-3-(pent-1-yn-1-yl)phenyl)-4-(3-fluoro-4-sulfamoylbenzyl)-1H-pyrazol-1-yl)thiazole-4-carboxylic acid]	–	< 100 nM	–
CCCCC#Cc1cc(-c2nn(-c3nc(C(=O)O)cs3)c(CC3CC3)c2Cc2ccc(S(N)(=O)=O)c(F)c2)ccc1F [Compound 540, 2-(5-(cyclopropylmethyl)-3-(4-fluoro-3-(hex-1-yn-1-yl)phenyl)-4-(3-fluoro-4-sulfamoylbenzyl)-1H-pyrazol-1-yl)thiazole-4-carboxylic acid]	–	< 100 nM	–
